Marks after values point to notes of the source that are not given here.
Key:
[1] = test system: C57 black male mice; test: Inhibitory effect on MPTP-induced dopaminergic neurodegeneration (striatal DA and DOPAC by HPLC); assay type: in vivo, mouse; conditions: for Inhibitory Rate (%) DA / Inhibitory Rate (%) DOPAC / DA (ng/g tissue) / DOPAC (ng/g tissue): striatum, 24 hours after last MPTP; for DA (ng/g tissue) / DOPAC (ng/g tissue): mean ± standard error; for inhibitory effect on the MPTP-induced reduction in the contents of dopamine and DOPAC in the striatum: po
Experimental: (§1) In each experiment, the contents of monoamine neurotransmitters and metabolites thereof in the striatum were measured by high performance liquid chromatography (HPLC) method. HPLC was carried out using a system consisting of a pump (L-6000, manufactured by Hitachi, Ltd., Japan), an autoinjector, a column (Cosmosil 5C18-A, manufactured by Nacalai Tesque, Inc., Japan; 4.6Ø×250 mm), and an electrochemical detector (ECD-100, manufactured by Eicom Corporation, Japan) under the following conditions.
In addition, the statistical analysis was carried out by Dunnett's multiple comparison test.
(§2) C57 black male mice (11-week-old) were used in the experiment. MPTP hydrochloride was dissolved in a physiological saline solution in a concentration of 3 mg/ml, and the resulting solution was intraperitoneally injected to the mice in a volume of 0.1 ml per 10 g of body weight, i.e., at a dose of 30 mg/kg, once a day for 8 days repetitively. […]
(§3) The striatum excised was homogenized with a 50-fold volume of 0.1 N formic acid:acetone (15:85) containing an internal standard substance (5-hydroxytriptophol; 20 ng/ml), and the mixture was centrifuged under cooling. A fixed amount of the supernatant was collected and evaporated to dryness under stream of nitrogen gas. Then, the resultant was dissolved in a 0.01 N acetic acid and centrifuged, and then the contents of various monoamine neurotransmitters and metabolites thereof in the supernatant were measured by HPLC being equipped with an electrochemical detector.
MPTP hydrochloride was intraperitoneally administered to C57 black male mice (11-week-old) at a dose of 30 mg/kg once a day for 8 days repetitively in the same manner as in Experiment 1. The test drugs, i.e., antiepileptic agents, were suspended in a 0.5% aqueous tragacanth solution, and the resultant was orally administered to the mice in a volume of 0.1 ml per 10 g of body weight 30 minutes prior to the MPTP administration for 8 days. […] The contents of dopamine and a metabolite thereof in the striatum were measured in the same manner as in Experiment 1. […] The dosages for each administration of various antiepileptic agents are shown below. […] Forsch. (Drug Res.), 30, 477 (1980) for other antiepileptic agents were employed, respectively.
The inhibitory rate was calculated from the values in the normal animal group, the vehicle-treated group and the test drug-treated group. The values in Table represent a mean value ± a standard error, and the marks * and ** mean that there is a significant difference from the value of the vehicle-treated group with p<0.05 and p<0.01, respectively.
The perpendicular lines in the figures represent standard errors, and the marks * and ** mean that there is a significant difference from the value of the vehicle-treated group with p<0.05 and p<0.01, respectively.

[2] = test system: C57 black mice; conditions: MPTP hydrochloride 15 mg/kg s.c. once; cited from earlier work
[3] = test system: C57 black male mice; test: Preparation of animal model for Parkinson's disease: striatal monoamine neurotransmitters and metabolites after MPTP; assay type: in vivo, mouse; conditions: MPTP hydrochloride 30 mg/kg ip once a day for 8 days
Experimental: as §1, §2, §3
The changes in the contents of various neurotransmitters and metabolites thereof 24 hours after the last MPTP administration are shown in FIG. 1. The number of animals in each group is 8, and the perpendicular lines in the figures represent standard errors, and the mark ** means that there is a significant difference from the value of the control group (the group treated with a physiological saline solution) with p<0.01.

[4] = 14-days group (14 days after the last MPTP administration), in words (FIG. 2)
[5] = 24-hours group, in words (Table 1)
[6] = 24 hours after last administration (FIG. 1)
[7] = 100 mg/kg po for 8 days, 100 mg/kg
[8] = 100 mg/kg po for 8 days, listed as zonisamide, 100 mg/kg

CC(=O)Nc1nnc(S(N)(=O)=O)s1 [AZA, Acetazolamide]
Inhibitory Rate (%) DA ([1]; 100 mg/kg po for 8 days): −4.1% | Inhibitory Rate (%) DOPAC ([1]; 100 mg/kg po for 8 days): 1.2% | DA (ng/g tissue) ([1]; 100 mg/kg po for 8 days): 1803 ± 428 ng/g tissue | DOPAC (ng/g tissue) ([1]; 100 mg/kg po for 8 days): 138 ± 23 ng/g tissue

NC(=O)N1c2ccccc2C=Cc2ccccc21 [CBZ, Carbamazepine]
inhibitory effect on the MPTP-induced reduction in the contents of dopamine and DOPAC in the striatum [1, 4]: did not show any significant inhibitory effect | inhibitory effect on the MPTP-induced reduction in the contents of dopamine and DOPAC in the striatum [1, 5]: did not show any significant inhibitory effect | Inhibitory Rate (%) DA ([1]; 20 mg/kg po for 8 days): 25.0% | DA (ng/g tissue) ([1]; 20 mg/kg po for 8 days): 3087 ± 453 ng/g tissue | DOPAC (ng/g tissue) ([1]; 20 mg/kg po for 8 days): 251 ± 36 ng/g tissue | Inhibitory Rate (%) DA ([1]; 60 mg/kg po for 8 days): 20.8% | Inhibitory Rate (%) DOPAC ([1]; 60 mg/kg po for 8 days): 23.0% | DA (ng/g tissue) ([1]; 60 mg/kg po for 8 days): 2894 ± 750 ng/g tissue | DOPAC (ng/g tissue) ([1]; 60 mg/kg po for 8 days): 202 ± 52 ng/g tissue | inhibitory effect on dopamine depletion induced by MPTP [2]: does not show such effect

CN1C(=O)CN=C(c2ccccc2)c2cc(Cl)ccc21 [DZP, Diazepam]
Inhibitory Rate (%) DA ([1]; 5 mg/kg po for 8 days): 24.3% | Inhibitory Rate (%) DOPAC ([1]; 5 mg/kg po for 8 days): 18.3% | DA (ng/g tissue) ([1]; 5 mg/kg po for 8 days): 3356 ± 451 ng/g tissue | DOPAC (ng/g tissue) ([1]; 5 mg/kg po for 8 days): 208 ± 28 ng/g tissue

CCC1(C)CC(=O)NC1=O (centres unmarked) [ESM, Ethosuximide]
Inhibitory Rate (%) DA ([1]; 600 mg/kg po for 8 days): −18.7% | Inhibitory Rate (%) DOPAC ([1]; 600 mg/kg po for 8 days): −12.9% | DA (ng/g tissue) ([1]; 600 mg/kg po for 8 days): 1008 ± 182 ng/g tissue | DOPAC (ng/g tissue) ([1]; 600 mg/kg po for 8 days): 80 ± 10 ng/g tissue

Nc1nnc(-c2cccc(Cl)c2Cl)c(N)n1 [LTG, 3,5-diamino-6-(2,3-dichlorophenyl)-1,2,4-triazine]
Inhibitory Rate (%) DA ([1]; 30 mg/kg po for 8 days): 51.6% | Inhibitory Rate (%) DOPAC ([1]; 30 mg/kg po for 8 days): 34.1% | DA (ng/g tissue) ([1]; 30 mg/kg po for 8 days): 4844 ± 676** ng/g tissue | DOPAC (ng/g tissue) ([1]; 30 mg/kg po for 8 days): 273 ± 31** ng/g tissue | inhibitory effect on dopamine depletion induced by MPTP [2]: show an inhibitory effect

CN1CC=C(c2ccccc2)CC1 [MPTP, 1-methyl-4-phenyl-1,2,3,6-tetrahydropyridine]
contents of dopamine (DA), homovanillic acid (HVA) and DOPAC in the striatum [3, 6]: significantly reduced | contents of noradrenaline (NA), serotonin (5HT), MOPEG and 5HIAA in the striatum [3, 6]: never affected | reduction in the contents of dopamine and metabolites thereof in the striatum ([3]; 14 days after last administration (FIG. 2)): irreversible

CCC1(c2ccccc2)C(=O)NC(=O)NC1=O [PB, Phenobarbital]
Inhibitory Rate (%) DA ([1]; 40 mg/kg po for 8 days): 23.5% | Inhibitory Rate (%) DOPAC ([1]; 40 mg/kg po for 8 days): 16.3% | DA (ng/g tissue) ([1]; 40 mg/kg po for 8 days): 3310 ± 544 ng/g tissue | DOPAC (ng/g tissue) ([1]; 40 mg/kg po for 8 days): 200 ± 32 ng/g tissue

O=C1NC(=O)C(c2ccccc2)(c2ccccc2)N1 [PHT, Phenytoin]
Inhibitory Rate (%) DA ([1]; 30 mg/kg po for 8 days): 37.4% | Inhibitory Rate (%) DOPAC ([1]; 30 mg/kg po for 8 days): 30.2% | DA (ng/g tissue) ([1]; 30 mg/kg po for 8 days): 4073 ± 454* ng/g tissue | DOPAC (ng/g tissue) ([1]; 30 mg/kg po for 8 days): 257 ± 30* ng/g tissue | inhibitory effect on dopamine depletion induced by MPTP [2]: show an inhibitory effect

CCCC(CCC)C(=O)[O-].[Na+] [VPA, Sodium valproate]
Inhibitory Rate (%) DA ([1]; 800 mg/kg po for 8 days): 17.5% | Inhibitory Rate (%) DOPAC ([1]; 800 mg/kg po for 8 days): 13.2% | DA (ng/g tissue) ([1]; 800 mg/kg po for 8 days): 2984 ± 468 ng/g tissue | DOPAC (ng/g tissue) ([1]; 800 mg/kg po for 8 days): 187 ± 29 ng/g tissue

NS(=O)(=O)Cc1noc2ccccc12 [ZNS, 3-sulfamoylmethyl-1,2-benzisoxazole]
inhibitory effect on the MPTP-induced reduction in the contents of dopamine and DOPAC in the striatum [1, 4]: dose-dependent inhibitory effect | inhibitory effect on the MPTP-induced reduction in the contents of dopamine and DOPAC in the striatum [1, 5]: dose-dependent inhibitory effect | Inhibitory Rate (%) DA ([1]; 10 mg/kg po for 8 days): 22.3% | Inhibitory Rate (%) DOPAC ([1]; 10 mg/kg po for 8 days): 29.8% | DA (ng/g tissue) ([1]; 10 mg/kg po for 8 days): 3797 ± 201* ng/g tissue | DOPAC (ng/g tissue) ([1]; 10 mg/kg po for 8 days): 221 ± 11* ng/g tissue | Inhibitory Rate (%) DA ([1]; 30 mg/kg po for 8 days): 80.3% | Inhibitory Rate (%) DOPAC ([1]; 30 mg/kg po for 8 days): 82.1% | DA (ng/g tissue) ([1]; 30 mg/kg po for 8 days): 7373 ± 685** ng/g tissue | DOPAC (ng/g tissue) ([1]; 30 mg/kg po for 8 days): 370 ± 27** ng/g tissue | Inhibitory Rate (%) DA [1, 7]: 97.2% | Inhibitory Rate (%) DOPAC [1, 7]: 109.1% | Inhibitory Rate (%) DA [1, 8]: ~100% | Inhibitory Rate (%) DOPAC [1, 8]: ~100% | DA (ng/g tissue) ([1]; 100 mg/kg po for 8 days): 8434 ± 336** ng/g tissue | DOPAC (ng/g tissue) ([1]; 100 mg/kg po for 8 days): 447 ± 24** ng/g tissue
